Laboratory results taken from patent US5236936A, “Pyridine compounds which are useful as angiotensin II receptor antagonists” (Imperial Chemical Industries PLC, priority 1991, dated 1993).

What was measured:
[1] = target: T1, AII receptors (guinea pig adrenal gland cell surface membrane fraction) (Cavia porcellus, UniProt Q9WV26); test: Test A: displacement of radiolabelled AII binding to guinea pig adrenal gland cell surface membranes; conditions: read-out: IC50 (concentration for 50% displacement of radiolabelled AII binding)
T1 construct: from tissue; host or cells: guinea pig adrenal gland, cell surface membrane fraction
T1 sequence (Q9WV26 1-359): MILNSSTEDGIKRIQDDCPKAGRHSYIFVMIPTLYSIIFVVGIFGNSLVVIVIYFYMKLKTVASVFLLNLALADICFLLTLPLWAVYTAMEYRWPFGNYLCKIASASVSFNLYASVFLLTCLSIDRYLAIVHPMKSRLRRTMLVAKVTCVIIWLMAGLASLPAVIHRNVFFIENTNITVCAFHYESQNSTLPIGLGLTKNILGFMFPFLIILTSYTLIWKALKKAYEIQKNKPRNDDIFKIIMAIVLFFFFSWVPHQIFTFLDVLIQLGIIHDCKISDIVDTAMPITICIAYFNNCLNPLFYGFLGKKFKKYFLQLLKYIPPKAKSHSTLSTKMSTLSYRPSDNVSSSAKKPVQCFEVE
Procedure: Test A: This in vitro procedure involves the incubation of the test compound initially at a concentration of 100 micromolar (or less) in a buffered mixture containing fixed concentrations of radiolabelled AII and a cell surface membrane fraction prepared from a suitable angiotensin target tissue. In this test, the source of cell surface membranes is the guinea pig adrenal gland which is well known to respond to AII. Interaction of the radiolabelled AII with its receptors (assessed as radiolabel bound to the particulate membrane fraction following removal of unbound radiolabel by a rapid filtration procedure such as is standard in such studies) is antagonized by compounds which also bind to the membrane receptor sites and the degree of antagonism (observed in the test as displacement of membrane-bound radioactivity) is determined readily by comparing the receptor-bound radioactivity in the presence of the test compound at the specified test concentration with a control value determined in the absence of the test compound. Using this procedure compounds showing at least 50% displacement of radiolabelled AII binding at a concentration of 10^-4 M are retested at lower concentrations to determine their potency. […]

[2] = tested on: angiotensin II-induced pressor responses; test: Test C: antagonism of angiotensin II-induced pressor responses in terminally-anaesthetised or conscious rats; format: in vivo; conditions: iv, rat, i.v. administration
Procedure: Test C: This in vivo test involves using terminally-anaesthetised or conscious rats in which an arterial catheter has been implanted under anaesthesia for the measurement of changes in blood pressure. The AII antagonistic effects of the test compound following oral or parenteral administration, are assessed against angiotensin II-induced pressor responses. To ensure that the effect is specific, the effect of the test compound on vasopressin-induced pressor responses may also be determined in the same preparation.

CCc1cc(OCc2ccc(-c3ccccc3-c3nnn[nH]3)cc2)c(-c2ccncc2)c(C)n1.Cl.Cl [Example 3, 6-ethyl-2-methyl-3-(4-pyridyl)-4-[(2'-(1H-tetrazol-5-yl)biphenyl-4-yl)methoxy]pyridine dihydrochloride]
IC50 [1]: 5.5 nM
ED50 [2]: 0.18 mg/kg
